From US20070122422A1, “Sodium-independent small neutral amino acid transporter transporting L- and D- amino acids” (Japan Science and Technology Corporation, priority 2000, published 2007) come the findings set out here.

Entries after “also recorded” stand apart in the source; their conditions may differ.

Holding throughout (type): cell-based
Experiment [1] addresses T1, asc-1 of mouse (co-expressed with 4F2hc of mouse) (Mus musculus, UniProt P63115).
T1 construct: expressed in transfected cells; host or cells: Xenopus oocytes injected with cRNA
T1 sequence (P63115 1-530): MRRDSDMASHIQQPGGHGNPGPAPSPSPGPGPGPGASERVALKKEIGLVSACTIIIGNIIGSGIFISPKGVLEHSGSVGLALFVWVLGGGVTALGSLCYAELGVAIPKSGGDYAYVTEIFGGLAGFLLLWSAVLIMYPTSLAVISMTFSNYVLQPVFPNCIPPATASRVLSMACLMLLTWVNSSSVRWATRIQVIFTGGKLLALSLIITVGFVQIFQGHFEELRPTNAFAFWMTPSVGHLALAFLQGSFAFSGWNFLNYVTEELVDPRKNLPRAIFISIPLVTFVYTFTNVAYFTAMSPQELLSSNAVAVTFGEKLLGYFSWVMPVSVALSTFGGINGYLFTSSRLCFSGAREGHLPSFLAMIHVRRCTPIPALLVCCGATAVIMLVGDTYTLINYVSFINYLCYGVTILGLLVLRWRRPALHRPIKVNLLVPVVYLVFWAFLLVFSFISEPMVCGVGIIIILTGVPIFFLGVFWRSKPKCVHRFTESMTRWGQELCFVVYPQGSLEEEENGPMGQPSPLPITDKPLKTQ
T1 sequence (P10852 1-526 partner): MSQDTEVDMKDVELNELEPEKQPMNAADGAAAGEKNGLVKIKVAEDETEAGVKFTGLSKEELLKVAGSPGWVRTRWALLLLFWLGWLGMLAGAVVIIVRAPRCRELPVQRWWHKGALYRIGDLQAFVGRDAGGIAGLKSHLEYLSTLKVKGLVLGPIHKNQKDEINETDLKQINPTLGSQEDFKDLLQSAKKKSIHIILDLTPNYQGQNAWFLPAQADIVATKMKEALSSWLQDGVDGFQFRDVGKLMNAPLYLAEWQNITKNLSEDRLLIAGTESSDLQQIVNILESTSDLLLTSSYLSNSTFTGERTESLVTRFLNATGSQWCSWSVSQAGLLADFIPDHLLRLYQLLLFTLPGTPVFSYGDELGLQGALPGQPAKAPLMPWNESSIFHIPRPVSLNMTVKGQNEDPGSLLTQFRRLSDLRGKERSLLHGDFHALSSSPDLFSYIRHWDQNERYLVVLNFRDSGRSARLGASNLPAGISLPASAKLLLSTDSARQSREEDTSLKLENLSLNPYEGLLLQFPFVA
The experiment is described as follows: Michaelis-Menten kinetic test of substrate incorporation by Xenopus oocytes co-expressing asc-1 and 4F2hc. The conditions noted are these: ratio to the Vmax value for alanine (defined as 1.00).

In experiment [2] the target is T1, asc-1 of mouse (co-expressed with 4F2hc of mouse). In words: Release of preloaded 14C-alanine from oocytes co-expressing asc-1 and 4F2hc on extracellular addition of compound. Particulars: for increase in the release of preloaded 14C-alanine: 100 μM compound added to Na+-free uptake solution, room temperature. As for the experimental part: Release of a preloaded ^14C-alanine mediated by asc-1 was checked in the oocytes into which both asc-1 gene cRNA and 4F2hc gene cRNA of mouse were injected together. ^14C-Alanine (−3nCi) of 100 μM in an amount of 100 nl was injected into the oocytes into which both asc-1 gene cRNA and 4F2hc gene cRNA of mouse were injected together, washed with an ice-cooled Na^+-free uptake solution containing no alanine and transferred to a Na^+-free uptake solution to which alanine (100 μM) was added or not added at room temperature (18° C.-22° C.) and the amount of ^14C-alanine released outside the cells was measured.
In oocytes into which cRNA of asc-1 gene and cRNA of 4F2hc gene of mouse were injected together, release of preloaded ^14C-alanine mediated by asc-1 was investigated whereupon it was checked whether the compound which inhibited the incorporation of ^14C-alanine mediated by asc-1 was a substrate of asc-1.
^14C-Alanine (−3nCi) of 100 μM in an amount of 100 nl was injected into the oocytes into which both asc-1 gene cRNA and 4F2hc gene cRNA of mouse were injected together, washed with an ice-cooled Na^+-free uptake solution containing no alanine and transferred to a Na^+-free uptake solution to which amino acid or amino acid analog (100 μM) was added or not added at room temperature (18° C.-22° C.) and the amount of ^14C-alanine released outside the cells was measured.
Black bars in FIG. 18 are the case where there were used oocytes into which cRNA of mouse asc-1 gene and cRNA of mouse 4F2hc gene were injected while white bars are the case where there were used oocytes into which water was injected instead of cRNA as a control.

Experiment [3] concerns the target T2, human asc-1 (co-expressed with human 4F2hc) (Homo sapiens, UniProt Q9NS82).
T2 construct: expressed in transfected cells
T2 sequence (Q9NS82 1-523): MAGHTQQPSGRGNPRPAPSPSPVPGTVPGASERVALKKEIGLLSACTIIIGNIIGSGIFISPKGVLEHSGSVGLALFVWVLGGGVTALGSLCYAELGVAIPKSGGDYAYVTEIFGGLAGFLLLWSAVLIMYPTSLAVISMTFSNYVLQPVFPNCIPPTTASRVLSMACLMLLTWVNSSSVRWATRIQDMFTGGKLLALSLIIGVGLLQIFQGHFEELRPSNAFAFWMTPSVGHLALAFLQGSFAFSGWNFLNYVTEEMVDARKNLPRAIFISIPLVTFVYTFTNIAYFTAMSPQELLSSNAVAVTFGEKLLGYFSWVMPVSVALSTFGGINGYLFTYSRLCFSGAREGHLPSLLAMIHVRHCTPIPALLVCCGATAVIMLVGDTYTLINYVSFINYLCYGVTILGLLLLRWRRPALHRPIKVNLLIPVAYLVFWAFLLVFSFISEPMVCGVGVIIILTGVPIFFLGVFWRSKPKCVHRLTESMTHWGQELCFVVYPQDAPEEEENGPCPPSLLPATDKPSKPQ
The experiment is described as follows: Incorporation of 14C-alanine by oocytes co-expressing human asc-1 and human 4F2hc. Particulars: oocytes where both human asc-1 and 4F2hc were expressed together.
Description: Comparison was made between incorporation of ^14C-alanine in the case where human asc-1 gene cRNA was solely expressed in oocytes with that in the case where both human asc-1 gene cRNA and human 4F2hc gene cRNA were expressed in oocytes. Expression was carried out by injection of 12.5 ng of human asc-1 gene cRNA, 12.5 ng of human 4F2hc gene cRNA or 12.5 ng of human asc-1 gene cRNA/12.5 ng of human 4F2hc gene cRNA into oocytes and incubation was conducted for three days. With regard to the oocytes into which human asc-1 gene cRNA, 4F2hc gene cRNA or human asc-1 gene cRNA/4F2hc gene cRNA was injected, an experiment for incorporation of substrate was carried out according to Example 2(1) using alanine as a substrate.

As for `C[C@H](N)C(=O)O` [L-Alanine], in experiment [1], the Vmax result is “(1.00)”. Besides, the “increase in the release of preloaded 14C-alanine” value in experiment [2] is given as “significantly increased; also recorded: high increase”. Moreover, in experiment [2] (alanine not added to Na+-free uptake solution), the “release of 14C-alanine without alanine outside the cells” value is on record as “significant release”. Further, in experiment [3], the incorporation of alanine entry is listed as “big incorporation”.

Take `N[C@@H](CO)C(=O)O` [L-Serine]: the Vmax in experiment [1] was 1.02. In addition, in experiment [2], the “increase in the release of preloaded 14C-alanine” value is on record as “high increase”.
